Results published in US11370763B2, “Compounds and compositions for treating conditions associated with NLRP activity” (Novartis AG, priority 2017, dated 2022).

These compounds were tested on IL-1β production in PMA-differentiated THP-1 cells (assay: IL-1β production in PMA-differentiated THP-1 cells stimulated with gramicidin (hTHP-1 assay containing 2% fetal bovine serum; Procedures 1-3)). Details: Homo sapiens, THP-1, hTHP-1 assay containing 2% fetal bovine serum; class symbols; read-out: hTHP-1 IC50 (Average IC50 of compounds in hTHP-1 assay).
Assay type: cell-based, human
Protocol: The following protocol is suitable for testing the activity of the compounds disclosed herein.
Procedure 1: IL-1β Production in PMA-Differentiated THP-1 Cells Stimulated with Gramicidin
THP-1 cells were purchased from the American Type Culture Collection and sub-cultured according to instructions from the supplier. Cells were cultured in complete RPMI 1640 (containing 10% heat inactivated FBS, penicillin (100 units/ml) and streptomycin (100 μg/ml)), and maintained in log phase prior to experimental setup. Prior to the experiment, compounds were dissolved in dimethyl sulfoxide (DMSO) to generate a 30 mM stock. The compound stock was first pre-diluted in DMSO to 3, 0.34, 0.042 and 0.0083 mM intermediate concentrations and subsequently spotted using Echo550 liquid handler into an empty 384-well assay plate to achieve desired final concentration (e.g. 100, 33, 11, 3.7, 1.2, 0.41, 0.14, 0.046, 0.015, 0.0051, 0.0017 μM). DMSO was backfilled in the plate to achieve a final DMSO assay concentration of 0.37%. The plate was then sealed and stored at room temperature until required.
THP-1 cells were treated with PMA (Phorbol 12-myristate 13-acetate) (20 ng/ml) for 16-18 hours. On the day of the experiment the media was removed and adherent cells were detached with trypsin for 5 minutes. Cells were then harvested, washed with complete RPMI 1640, spun down, and resuspended in RPMI 1640 (containing 2% heat inactivated FBS, penicillin (100 units/ml) and streptomycin (100 μg/ml). The cells were plated in the 384-well assay plate containing the spotted compounds at a density of 50,000 cells/well (final assay volume 50 μl). Cells were incubated with compounds for 1 hour and then stimulated with gramicidin (5 μM) (Enzo) for 2 hours. Plates were then centrifuged at 340 g for 5 min. Cell free supernatant (40 μL) was collected using a 96-channel PlateMaster (Gilson) and the production of IL-1β was evaluated by HTRF (cisbio). The plates were incubated for 18 h at 4° C. and read using the preset HTRF program (donor emission at 620 nm, acceptor emission at 668 nm) of the SpectraMax i3x spectrophotometer (Molecular Devices, software SoftMax 6). A vehicle only control and a dose titration of CRID3 (100-0.0017 μM) were run concurrently with each experiment.
Procedure 2: IL-1β Production in PMA-Differentiated THP-1 Cells Stimulated with Gramicidin
THP-1 cells were purchased from the American Type Culture Collection and sub-cultured according to instructions from the supplier. Prior to experiments, cells were cultured in complete RPMI 1640 (containing 10% heat inactivated FBS, penicillin (100 units/ml) and streptomycin (100 μg/ml)), and maintained in log phase prior to experimental setup. Prior to the experiment THP-1 were treated with PMA (Phorbol 12-myristate 13-acetate) (20 ng/ml) for 16-18 hours. Compounds were dissolved in dimethyl sulfoxide (DMSO) to generate a 30 mM stock. On the day of the experiment the media was removed and adherent cells were detached with trypsin for 5 minutes. Cells were then harvested, washed with complete RPMI 1640, spun down, resuspended in RPMI 1640 (containing 2% heat inactivated FBS, penicillin (100 units/ml) and streptomycin (100 μg/ml). The cells were plated in a 384-well plate at a density of 50,000 cells/well (final assay volume 50 μl). Compounds were first dissolved in assay medium to obtain a 5× top concentration of 500 μM. 10 step dilutions (1:3) were then undertaken in assay medium containing 1.67% DMSO. 5× compound solutions were added to the culture medium to achieve desired final concentration (e.g. 100, 33, 11, 3.7, 1.2, 0.41, 0.14, 0.046, 0.015, 0.0051, 0.0017 μM). Final DMSO concentration was at 0.37%. Cells were incubated with compounds for 1 hour and then stimulated with gramicidin (5 μM) (Enzo) for 2 hours. Plates were then centrifuged at 340 g for 5 min. Cell free supernatant (40 μL) was collected using a 96-channel PlateMaster (Gilson) and the production of IL-1β was evaluated by HTRF (cisbio). […]
Compound CC(C)c1cc(-c2ccc3ccccc3c2)cc(C(C)C)c1CC(=O)N=S(N)(=O)c1ccc(CN(C)C)cc1 (stereo not drawn) [Example 136, N-(amino(4-((dimethylamino)methyl)phenyl)(oxo)-λ^6-sulfaneylidene)-2-(2,6-diisopropyl-4-(naphthalen-2-yl)phenyl)acetamide] has an IC50 of 200 to 1000 nM. With CC(C)c1cc(C(F)F)cc(C(C)C)c1CC(=O)N=S(N)(=O)c1sc(C(C)(C)O)cc1F (stereo not drawn) [Example 37, 2-(4-(difluoromethyl)-2,6-diisopropylphenyl)-N-(3-fluoro-5-(2-hydroxypropan-2-yl)thiophene-2-sulfonimidoyl)acetamide] the IC50 was 40 to 200 nM. CC(C)c1cc(F)cc(C2CC2)c1CC(=O)N=S(N)(=O)c1ccc(CN(C)C)cc1 (single isomer, unassigned) [Example 47, (R)- or (S)-2-(2-cyclopropyl-4-fluoro-6-isopropylphenyl)-N-(4-((dimethylamino)methyl)phenyl-sulfonimidoyl)acetamide] showed an IC50 of 200 to 1000 nM. Cc1ccc(-c2cc(C(C)C)c(CC(=O)N=S(N)(=O)c3ncc(C(C)(C)O)s3)c(C(C)C)c2)cc1C (stereo not drawn) [Example 121, N-(amino(5-(2-hydroxypropan-2-yl)thiazol-2-yl)(oxo)-λ^6-sulfaneylidene)-2-(3,5-diisopropyl-3′,4′-dimethyl-[1,1′-biphenyl]-4-yl)acetamide] gave an IC50 of 200 to 1000 nM. Work on CC(C)c1cc(C#N)cc(C(C)C)c1CC(=O)N=S(N)(=O)c1ccc(CN(C)C)cc1 (stereo not drawn) [Example 28, 2-(4-cyano-2,6-diisopropylphenyl)-N-(4-((dimethylamino)methyl)phenyl-sulfonimidoyl)acetamide] yielded an IC50 of 1000 to 5000 nM. CC(C)c1cc(COC2CCCC2)cc(C(C)C)c1CC(=O)N=S(N)(=O)c1cnc(C(C)(C)O)s1 (stereo not drawn) [Example 141, N-(amino(2-(2-hydroxypropan-2-yl)thiazol-5-yl)(oxo)-λ^6-sulfaneylidene)-2-(4-((cyclopentyloxy)methyl)-2,6-diisopropylphenyl)acetamide] showed an IC50 of 40 to 200 nM. Compound CC(C)c1cc(C#N)nc(C(C)C)c1CC(=O)N=S(N)(=O)c1cc(C(C)(C)O)cs1 (stereo not drawn) [Example 151, N-(amino(4-(2-hydroxypropan-2-yl)thiophen-2-yl)(oxo)-λ^6-sulfaneylidene)-2-(6-cyano-2,4-diisopropylpyridin-3-yl)acetamide] has an IC50 of 200 to 1000 nM. For CC(C)c1ccc(F)c(C(C)C)c1CC(=O)N=S(N)(=O)c1cnc(C(C)(C)O)s1 (stereo not drawn) [Example 103, N-(amino(2-(2-hydroxypropan-2-yl)thiazol-5-yl)(oxo)-λ^6-sulfaneylidene)-2-(3-fluoro-2,6-diisopropylphenyl)acetamide], the IC50 was 200 to 1000 nM. For CC(C)(O)c1ncc(S(N)(=O)=NC(=O)Cc2c(C3CC3)cc(F)cc2C(F)(F)F)s1 (single isomer, unassigned) [Example 196, (R) or (S)-N-(amino(2-(2-hydroxypropan-2-yl)thiazol-5-yl)(oxo)-λ^6-sulfaneylidene)-2-(2-cyclopropyl-4-fluoro-6-(trifluoromethyl)phenyl) acetamide], the IC50 was 5000 to 30000 nM. Compound CC(C)c1cc(-c2ccc3c(c2)CCOC3)cc(C(C)C)c1CC(=O)N=S(N)(=O)c1cnc(C(C)(C)O)s1 (stereo not drawn) [Example 139, N-(amino(2-(2-hydroxypropan-2-yl)thiazol-5-yl)(oxo)-λ^6-sulfaneylidene)-2-(4-(isochroman-6-yl)-2,6-diisopropylphenyl)acetamide] has an IC50 of 200 to 1000 nM. For CC(C)c1nc(-c2cccc(C(F)(F)F)c2)c(F)c(C(C)C)c1CC(=O)N=S(=O)(NC(=O)OC(C)(C)C)c1cnc(C(C)(C)O)s1 (stereo not drawn) [Example 99, tert-butyl (N-(2-(5-fluoro-2,4-diisopropyl-6-(3-(trifluoromethyl)phenyl)pyridin-3-yl)acetyl)-2-(2-hydroxypropan-2-yl)thiazole-5-sulfonimidoyl)carbamate], the IC50 was 1000 to 5000 nM. Compound CC(C)c1cc(C#N)c(F)c(C(C)C)c1CC(=O)N=S(N)(=O)c1ncc(C(C)(C)O)s1 (stereo not drawn) [compound 13, 2-(4-cyano-3-fluoro-2,6-diisopropylphenyl)-N-(5-(2-hydroxypropan-2-yl)thiazol-2-ylsulfonimidoyl)acetamide] has an IC50 of 200 to 1000 nM. CC(C)c1cc2c(c(C(C)C)c1CC(=O)N=S(N)(=O)c1ccn(C(C)C)n1)COC2 (stereo not drawn) [Example 221, N-(amino(1-isopropyl-1H-pyrazol-3-yl)(oxo)-λ^6-sulfaneylidene)-2-(4,6-diisopropyl-1,3-dihydroisobenzofuran-5-yl)acetamide] showed an IC50 of 5000 to 30000 nM. With CC(C)c1cc(-c2ccc3c(c2)OC(F)(F)O3)cc(C(C)C)c1CC(=O)N=S(N)(=O)c1ncc(C(C)(C)O)s1 (stereo not drawn) [Example 117, N-(amino(5-(2-hydroxypropan-2-yl)thiazol-2-yl)(oxo)-λ^6-sulfaneylidene)-2-(4-(2,2-difluorobenzo[d][1,3]dioxol-5-yl)-2,6-diisopropylphenyl)acetamide] the IC50 was 40 to 200 nM.

Same assay, conditions: Homo sapiens, THP-1, hTHP-1 assay containing 2% fetal bovine serum; given as numeric bound; read-out: hTHP-1 IC50 (Average IC50 of compounds in hTHP-1 assay)
CC(C)(O)c1nc(CO)c(S(N)(=O)=NC(=O)Cc2c3c(cc4c2CCC4)CCC3)s1 (single isomer, unassigned) [Example 67, (R)- or (S)-2-(1,2,3,5,6,7-hexahydros-indacen-4-yl)-N-(4-(hydroxymethyl)-2-(2-hydroxypropan-2-yl)thiazol-5-ylsulfonimidoyl)acetamide] was tested, and the IC50 was over 30000 nM. CC(C)c1cc(C#N)cc(C2CC2)c1CC(=O)N=S(N)(=O)c1ccc(CN(C)C)cc1F (single isomer, unassigned) [Example 63, (R)- or (S)-2-(4-cyano-2-cyclopropyl-6-isopropylphenyl)-N-(4-((dimethylamino)methyl)-2-fluorophenylsulfonimidoyl) acetamide] was tested, and the IC50 was over 30000 nM. CC(C)(O)c1ncc([S@](N)(=O)=NC(=O)Cc2cc3c(c4c2CCC4)CCC3)s1 [Compound 259b] was tested, and the IC50 was over 30000 nM. Compound CC(C)(O)c1ncc(S(N)(=O)=NC(=O)Cc2c(C3CC3)cc(F)cc2C(F)(F)F)s1 (single isomer, unassigned) [Example 197, (S) or (R)-N-(amino(2-(2-hydroxypropan-2-yl)thiazol-5-yl)(oxo)-λ^6-sulfaneylidene)-2-(2-cyclopropyl-4-fluoro-6-(trifluoromethyl)phenyl) acetamide] has an IC50 of over 30000 nM. In the case of CC(C)c1cc(F)cc(C(C)C)c1C(C)C(=O)N=S(N)(=O)c1cnc(C(C)(C)O)s1 (single isomer, unassigned) [Example 195, (R, R) or (R, S)-N-(amino(2-(2-hydroxypropan-2-yl)thiazol-5-yl)(oxo)-λ^6-sulfaneylidene)-2-(4-fluoro-2,6-diisopropylphenyl) propanamide], the IC50 is reported as over 30000 nM.

Same assay, conditions: hTHP-1 assay containing 2% fetal bovine serum; class symbols; read-out: hTHP-1 IC50 (Average IC50 of compounds in hTHP-1 assay)
With CC(C)c1cc(C#N)cc(C(C)C)c1CC(=O)N=S(N)(=O)c1sc(C(C)(C)O)nc1CO (single isomer, unassigned) [Example 64, (S)- or (R)-2-(4-cyano-2,6-diisopropylphenyl)-N-(4-(hydroxymethyl)-2-(2-hydroxypropan-2-yl)thiazol-5-ylsulfonimidoyl)acetamide] the IC50 was 200 to 1000 nM. CC(C)c1ncc(F)c(C(C)C)c1CC(=O)N=S(N)(=O)c1sc(C(C)(C)O)cc1F (single isomer, unassigned) [Example 211, N-(amino(3-fluoro-5-(2-hydroxypropan-2-yl)thiophen-2-yl)(oxo)-λ^6-sulfaneylidene)-2-(5-fluoro-2,4-diisopropylpyridin-3-yl)acetamide] gave an IC50 of 200 to 1000 nM.
